Measurements as given in patent US6120997A, “Nucleic acid binders having an hydroxyamine motif” (The Scripps Research Institute, priority 1998, dated 2000).
“Also recorded” adds a separate entry of the source. *1 amine or outer side, *2 acyl side, *3 side chain or, on linkers, in order; H or OH if unused. Where a SMILES comes first, the peptide text is derived from it. Bridges are numbered along the chain shown (N, C = ends). [ ]: non-standard residue; d: D form. The star is where a group is joined. X2 = NC1=N[C@@H]([C@H](N[*:1])C(=O)[*:2])C[C@H](O)N1; ΔAla(Z-3-ureido) = NC(=O)N/C=C(\N)C(=O)O; X1 = NCC[C@@H](O)[C@H](N)CC(=O)*; Dap = NC[C@H](N)C(=O)O

Tests used:
[1] = NMR dilution experiments of 1:1 salt complexes in DMSO-d6 (phosphodiester recognition); format: binding
Method: [a] NMR dilution experiments with the preformed 1:1 salt complexes were performed in DMSO-d6 at […]; [b] calculated maximum shift at full complexation in ppm.
In order to determine binding constants we prepared defined 1:1 salt complexes and measured their dissociation upon stepwise dilution in [D6 ]DMSO by following the shifts of NH and OH resonances. The chemical shift values of the totally uncomplexed state (o) and the fully complexed state (n) and the stability constant Ka were subsequently determined by curve fitting. […] In all cases, data could be fitted to a 1:1 binding isotherm. […] This order mirrors the order of binding affinities and is consistent with the interpretation that differential involvement of the hydroxyl group in hydrogen bonding provides for the energetic differences in complexation.

[2] = molecular target: Neo16-bd; assay: SPR binding of aminoglycosides to Neo16-bd aptamer; conditions: HBS-buffer; read-out: Kd, Neo16bd
Method: Conditions: 10 mM HEPES (pH 7.4), 0.1 mM EDTA and NaCl as indicated.
The binding of aminoglycosides to RNA is likely to involve substantial ionic contributions and therefore should be strongly influenced by competing buffer ions. […] We studied the salt dependence of neomycin B binding to RBE3, RBE3-neg and Neo16-bd (FIG. 14) by varying the concentration of NaCl included in the injection buffer (10 mM HEPES, pH 7.4, 0.1 mM EDTA). […] This neomycin binding motif was obtained by in vitro selection under conditions of high ionic strength.
To further improve our understanding of specific aminoglycoside recognition, we have also included an artificial aminoglycoside receptor that was evolved in vitro to recognize an aminoglycoside. A number of RNA aptamers for small molecules have been reported in recent years. Among them are aptamers that recognize the aminoglycosides tobramycin, lividomycin and kanamycin.
For comparison, the corresponding values for AS-wt are also included.
(§1) General Procedures for SPR Binding Studies done in Example 5. Samples were prepared by serial dilutions from stock solutions in RNase free microfuge tubes (Ambion) and were centrifuged at 14000 rpm for degassing. Unless otherwise noted, all binding studies were carried out using HBS buffer (Pharmacia Biosensor AB) which was used as obtained. All procedures for binding studies were automated as methods using repetitive cycles of sample injection and regeneration. Typically, buffer was injected in the first two cycles to establish a stable baseline value. Samples were injected at a flowrate of […] using either the KINJECT command. All aminoglycoside samples were injected from autoclaved 7 mm plastic vials that were capped with pierceable plastic crimp caps. To minimize carry over, samples were injected in order of increasing concentration. The running buffer was identical to the injection buffer.

[3] = system: AS-wt; assay: SPR binding of aminoglycosides to decoding region A-site model AS-wt; design: species or system E. coli; conditions: for RNA binding, affinity or specificity for AS-wt (in words): Example 4
Method: The RNA binding properties of 100-800 were analyzed using a surface plasmon resonance based assay that was recently developed in these laboratories. This assay allows the determination of both affinity and specificity of small molecule-RNA interactions. For the analysis, the compounds were injected over a matrix containing RNA that was immobilized through a biotin tag and the equilibrium binding values were recorded at various concentrations.
Non-linear curve fitting was then used to determine the values of the dissociation constants (KD). The specificity of binding, i.e. the ability to discriminate between different RNA sequences was evaluated by comparing the binding to the target sequence (AS-wt) and the negative control (AS-U1495A). The ratio of KD(AS-U1495A) to KD(AS-wt) was taken to be a representation of the specificity of the binding event.
For the quantitative measurement of aminoglycoside binding to these sequences, we utilized our recently developed SPR-based assay. Biotinylated derivatives of all sequences were prepared by in vitro transcription in the presence of guanosine 5'-monophosphorothioate followed by alkylation with a biotin iodoacetamide derivative. The RNA conjugates were then immobilized onto streptavidin coated SPR-sensorchips for analysis.
In the same manner as illustrated for paromomycin, a panel of aminoglycosides was screened and the results are compiled in the table of FIGS. 46 and 47. In addition to the naturally occuring aminoglycoside antibiotics, some of the compounds in FIG. 46 are synthetically derived, unnatural aminoglycosides. The number of independent determinations for each dissociation constant ranged from 1-3. […] All data were recorded under near physiological salt conditions (HBS-buffer: 150 mM NaCl, 10 mM HEPES, pH7.4, 3.4 mM EDTA) unless noted otherwise. Data points were taken at concentrations ranging from […]. Below this concentration range, surface transport limitations prevent the attainment of equilibrium.
Plasmon resonance and antimicrobial testing for Example 4. Synthesis of the biotinylated RNA and surface plasmon resonance detected binding experiments were performed as described vida supra. Solution conditions: 150 mM NaCl, 10 mM HEPES (pH 7.4), 3.4 mM EDTA. KD determination from the binding curves.
The fitting routine of the program kaleidagraph was used for all calculations. The starting values for a and b were set to 1 and 0 respectively. The number of KD values used in the fitting was adjusted depending on the observed range of equivalents bound but generally varied from 3 to 4.
as §1, with “buffer. Expected values for the equilibrium response of one equivalent of analyte were calculated from the relative molecular weight of the analyte and the immobilized RNA ligand in each flowcells and adjusted with a correction factor of 0.76 which arises from the different molar refractive indices of RNA and the analyte. […]” for “buffer.”

[4] = system: Escherichia coli (ATCC 25922); assay: minimum inhibitory concentration, broth dilution technique; format: cell-based; conditions: E. coli, liquid culture
Description: We reasoned that this modification would provide the cleanest test for probing the ionic contribution, since hydrogen bond donor abilities, electronegativity and steric demand are similar for both functional groups. In order to learn how well the model system correlates with in vivo activity, we checked the new compounds for antibacterial activity against three bacterial strains using the disc method (Kirby-Bauer technique). The minimum inhibitory concentrations (MICs) of the compounds were then determined using the broth dilution technique. For antibiotic testing protocols, see: (a) Disk testing protocols: Phillips, I.; Williams, D., in Laboratory Methods in Antimicrobial Chemotherapy, Garrod, L. (ed.) Churchill Livingstone Press: Edinburgh, 1978, pp. 3-30. (b) MIC determination: Waterworth, P. M., in Laboratory Methods in Antimicrobial Chemotherapy, Garrod, L. (ed.) Churchill Livingstone Press: Edinburgh, 1978, pp. 31-40; Barry, A. L. The Antimicrobic Susceptibility Test: Principles and Practice, Lea and Febiger: Philadelphia (1976). (c) Standards: Lorian, V., Antibiotics in Laboratory Medicine (2nd. ed.), Williams and Wilkins: Baltimore, 1986.
FIG. 39A gives the zone diameters measured for the three bacterial strains. The zone diameters measured for the strains with known antibiotics are well within the accepted limits. […] It is worth noting that some testing protocols recommend overnight growth of the cultures, rather than the minimum time required to obtain good growth of the control. MIC values were tested for several of the control antibiotics using overnight growth, and the MIC values observed were 2-4× greater than those observed for 4-6 hour growth.
Minimal Inhibitory Concentration (MIC) testing. E. coli ATCC 25922 was grown in Mueller-Hinton broth (cation-adjusted, BBL Microbiology Systems) to an optical density of approx. 0.5 (absorbance read at 600 nm), then diluted to an OD600 of 0.1. Samples of antibiotic were prepared in Mueller-Hinton broth, typically a series of 2-fold dilutions from […]. […] The absorbance of each sample was read (1=600 nm), and MIC was considered to be the lowest antibiotic concentration at which the absorbance was less than 1% of the no-antibiotic control.

[5] = system: bacterial protein synthesis; conditions: cited from earlier work
[6] = system: wt-RRE-II; assay: SPR binding of aminoglycosides to wt-RRE-II; design: species or system HIV-1; conditions: comparison of aminoglycosides
Method: FIGS. 9A and 9B illustrate neomycin B binding to RBE3, RBE3-neg and wt-RRE-II. (A) Semilogarithmic plot. […] Conditions: pH 7.0, 10 mM HEPES, 150 mM NaCl, 0.1 mM EDTA, […].
FIGS. 10A and 10B illustrate paromomycin binding to RBE3, RBE3-neg and wt-RRE-II. (A) Semilogarithmic plot; the dashed line indicates the binding of neomycin B to wt-RRE-II for comparison (B) Scatchard plot. […] Conditions: pH 7.0, 10 mM HEPES, 150 mM NaCl, 0.1 mM EDTA, […].
FIG. 11 illustrates the kinetic stability of wt-RRE-II complexes with neomycin B vs. paromomycin. […] Data points were taken after 1 min of dissociation.
Binding of the aminoglycoside to all three RNA oligonucleotides is observed starting in the low nanomolar concentration range and is non-saturable over the concentration range investigated. […] The high degree of non-specific binding is not surprising considering that aminoglycosides are highly charged polycations that tend to associate nonspecifically with the polyanionic phosphate backbone of RNA. […] Data points corresponding to 0.5 or more equivalents of neomycin B represent equilibrium values and can be analyzed with respect to stoichiometry and affinity of aminoglycoside binding. […] Both sequences bind one molecule of neomycin B with submicromolar affinity followed by weaker association with several additional equivalents of the antibiotic.
Samples were prepared by serial dilutions from stock solutions in RNase free microfuge tubes (Ambion) and were centrifuged at 14000 rpm for degassing. Buffers were filtered through sterile 0.2 &m nylon membranes (Nalgene) under vacuum, except for BIA certified HBS buffer (Pharmacia Biosensor AB) which was used as obtained. All procedures for binding studies were automated as methods using repetitive cycles of sample injection and regeneration. Typically, buffer was injected in the first two cycles to establish a stable baseline value. Samples were injected at a flowrate of 5-10 &L/min using either the KINJECT or the COINJECT command. All aminoglycoside and Rev27 samples were injected from autoclaved 7 mm plastic vials that were capped with pierceable plastic crimp caps. To minimize carry over, samples were injected in order of increasing concentration. The running buffer was identical to the injection buffer, except for the salt dependence study where a single running buffer was used for all injections. Expected values for the equilibrium response of one equivalent of analyte were calculated from the relative molecular weight of the analyte and the immobilized RNA ligand in each flowcells. These values were adjusted by multiplying with a factor of 0.8 or 0.57 for Rev27 or aminoglycosides respectively. These factors arise from the different molar refractive indices of RNA and the analyte and were determined from the Scatchard plot x-axis intercepts of the 1:1 binding isotherms for Rev27 and neomycin B.
Binding Studies with Aminoglycosides.
Neomycin B sulfate (Fluka) was converted to the free base by passing it through Amberlite IRA 400 (OH-- form) and purified by ion exchange chromatography on Dowex 1-X2 100 to remove neomycin C; the purity of neomycin B was verified by NMR in D2 O. Paromomycin sulfate was obtained from Sigma and used as received. Samples were prepared by dilution from 10 mM stock solutions in injection buffer (10 mM HEPES, pH 7.4, 150 mM NaCl, 3.4 mM EDTA). Data points were taken after an association phase of 30 min. A 2 min regeneration pulse of 150 mM Na2 SO4 in injection buffer was used between injections. […]

Row | Compound | Kd [2] [nM] | RNA binding, affinity or specificity for AS-wt (in words) [3] | antibacterial activity / MIC compared with neomycin B (in words) [4] | effect on bacterial protein synthesis (in words) [5] | also measured
1 | CO[C@H]1O[C@H](CN)[C@@H](O)[C@H](OCc2ccccc2)[C@H]1OCc1ccccc1 [Compound 2] | – | – | – | – | dimethylphosphate binding affinity (in words) [1]: higher affinity than bicyclic guanidine 6; selectivity for dimethylphosphate over chloride [1]: 10 fold
2 | NCCO[C@H]1[C@@H](O)[C@H](O[C@@H]2[C@@H](O)[C@H](N)C[C@H](N)[C@H]2O[C@H]2O[C@H](CN)[C@@H](O)[C@H](O)[C@H]2N)O[C@@H]1CO [Compound 500, 3"-O-Ethyl-2-amino ribostamycin] | < 10 | binding affinity goes up by an order of magnitude but specificity is unaffected; also recorded: significantly lower binding affinities toward the AS wt RNA than neomycin | very nearly the same anti microbial activity as neomycin B | – | –
3 | NCCCNCCO[C@H]1[C@@H](O)[C@H](O[C@@H]2[C@@H](O)[C@H](N)C[C@H](N)[C@H]2O[C@H]2O[C@H](CN)[C@@H](O)[C@H](O)[C@H]2N)O[C@@H]1CO [Compound 600, 3"-O-2-N-(3-propylamino)-ethylamino ribostamycin] | < 10 | diminishing returns on the affinity without affecting the specificity; also recorded: significantly lower binding affinities toward the AS wt RNA than neomycin | very nearly the same anti microbial activity as neomycin B | – | –
4 | CN(CC(=O)O)NC(=O)C[C@H](N)C[C@@H](O)CN [Negamycin] | – | – | – | induces miscoding during translation | –
5 | [H]/N=C(/N)N[C@H]1[C@H](O)[C@@H](O)[C@H](O[C@@H]2O[C@@H](C)[C@](O)(C=O)[C@H]2O[C@@H]2O[C@@H](CO)[C@H](O)[C@@H](O)[C@@H]2NC)[C@@H](N/C(N)=N\[H])[C@@H]1O [Streptomycin] | – | much reduced binding affinity and no specificity | – | – | relative binding affinity for wt-RRE-II (in words) [6]: weakest; specificity for AS-wt over negative controls (in words) ([3]; Example 5, HBS-buffer): does not show any specificity for AS-wt
6 | NCC[C@@H](O)[C@H](N)CC(=O)N[C@H]1CNC(=O)[C@H]([C@H]2C[C@H](O)NC(N)=N2)NC(=O)/C(=C/NC(N)=O)NC(=O)[C@H](CO)NC(=O)[C@H](CO)NC1=O [Tuberactinomycin A] (X1-[Dap]SS[ΔAla(Z-3-ureido)][X2]; lactam 1-C) | – | – | – | inhibits both initiation and elongation steps of bacterial protein synthesis | –
